The values that follow come from PubChem BioAssay (NCI).

Some test systems named below: SK-MEL-2 melanoma; OVCAR-5 ovarian; HCC-2998 colon; UO-31 renal; SK-MEL-28 melanoma; RPMI-8226 leukemia; MOLT-4 leukemia; SF-539 CNS; RXF 393 renal; MDA-N.
Holding throughout (experiment): NCI-60 cell line screen, 48 h

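1) Cells in 96-well plates. 2) Compound, 48 h, 5 concentrations. 3) Linear interpolation between surrounding doses. 4) Unreached endpoint = highest concentration. Abbreviation: GI50, concentration required for 50% inhibition of growth. TGI: total growth inhibition.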

With `CCOC(=O)c1nc2ccc(Cl)cc2c2c1Cc1ccccc1-2`, the TGI with SK-MEL-2 melanoma, in the assay with OVCAR-5 ovarian, with HCC-2998 colon, with UO-31 renal, with SK-MEL-28 melanoma and in the assay with RPMI-8226 leukemia was greater than 100 µM each time. Besides, the TGI in the assay with MOLT-4 leukemia, in the assay on SF-539 CNS and in the assay on RXF 393 renal was greater than 100 µM throughout.

On to `COc1cc(C2C(C(=O)O)=C(CO)Oc3cc4c(cc32)OCO4)cc(OC)c1O` (configuration not stated), for which the TGI with UO-31 renal, with SK-MEL-28 melanoma, with RPMI-8226 leukemia, in the assay with MOLT-4 leukemia and in the assay on SF-539 CNS was greater than 100 µM each time.

As for `O=C(CCCCCCC(=O)Nc1ccc(N(CCCl)CCCl)cc1)NO`, the GI50 was 2.56 µM with OVCAR-5 ovarian; 9.26 µM with HCC-2998 colon; 1.82 µM in the assay with UO-31 renal; 3.35 µM with SK-MEL-28 melanoma; 3020 nM with RPMI-8226 leukemia; 421 nM with MOLT-4 leukemia. For the same compound, the GI50 in the assay with SF-539 CNS was 2380 nM; with RXF 393 renal it was 1.64 µM. Besides, the TGI in the assay on OVCAR-5 ovarian was 30.6 µM; with HCC-2998 colon, 22.6 µM; in the assay with UO-31 renal it was 13 µM; in the assay with SK-MEL-28 melanoma, 16.3 µM; in the assay on RPMI-8226 leukemia, greater than 100 µM; with MOLT-4 leukemia it was 4.26 µM. Further, the TGI in the assay with SF-539 CNS was found to be 14.7 µM; in the assay on RXF 393 renal it was 4.74 µM.

For `CN(C)CC(=O)Nc1ccc(Cn2nnc3c2C(=O)c2nnn(Cc4ccc(NC(=O)CN(C)C)cc4)c2C3=O)cc1`, the GI50 in the assay on OVCAR-5 ovarian is 0.234 µM; with HCC-2998 colon, 0.162 µM; in the assay on RPMI-8226 leukemia, 225 nM; in the assay with SF-539 CNS, 197 nM. Further, the TGI in the assay with OVCAR-5 ovarian was found to be 0.578 µM; in the assay on HCC-2998 colon, 0.37 µM; with RPMI-8226 leukemia, 0.783 µM; in the assay with SF-539 CNS, 0.502 µM.

`ONc1ncnc2nc[nH]c12`: the TGI in the assay on SK-MEL-2 melanoma, in the assay on OVCAR-5 ovarian, with HCC-2998 colon, in the assay on UO-31 renal, with SK-MEL-28 melanoma and in the assay on RPMI-8226 leukemia was greater than 100 µM throughout. The TGI with MOLT-4 leukemia and with SF-539 CNS was greater than 100 µM throughout.

With `Cn1c(=S)[nH]c2sc3c(c2c1=O)CCSC3`, the TGI with SK-MEL-2 melanoma is greater than 100 µM; in the assay on OVCAR-5 ovarian, greater than 100 µM; in the assay with HCC-2998 colon it was greater than 100 µM; in the assay on MDA-N, greater than 100 µM; in the assay on UO-31 renal it was 25.8 µM; in the assay on RPMI-8226 leukemia, greater than 100 µM. Moreover, the TGI with MOLT-4 leukemia is greater than 100 µM; in the assay on SF-539 CNS, greater than 100 µM; in the assay on RXF 393 renal, 14.7 µM.

Consider `CCCc1[nH]c(SCCCCCCCCSc2nc(-c3ccc(F)cc3)c(CCC)[nH]2)nc1-c1ccc(F)cc1`, for which the TGI in the assay on SK-MEL-2 melanoma, in the assay on OVCAR-5 ovarian, with HCC-2998 colon, in the assay with UO-31 renal, in the assay on SK-MEL-28 melanoma and with MOLT-4 leukemia was greater than 100 µM throughout. Further, the TGI in the assay on SF-539 CNS was 27.7 µM; in the assay on RXF 393 renal, greater than 100 µM.

On to `COc1ccc2nc(-c3ccc(-c4noc(-c5cc(OC)c(OC)c(OC)c5)n4)cc3)[nH]c2c1`, for which the GI50 in the assay with SK-MEL-2 melanoma is 18.9 µM; in the assay with OVCAR-5 ovarian, 16.7 µM; in the assay with HCC-2998 colon, 35.5 µM; in the assay on UO-31 renal, 18.9 µM; with SK-MEL-28 melanoma, 9.59 µM; with RPMI-8226 leukemia it was 6020 nM. Besides, the results for the GI50 with MOLT-4 leukemia, in the assay with SF-539 CNS and with RXF 393 renal were 5290 nM, 2000 nM and 5.24 µM, respectively. Also, the TGI was 51.1 µM in the assay on SK-MEL-2 melanoma; 53.8 µM with OVCAR-5 ovarian; greater than 100 µM in the assay with HCC-2998 colon; 38.7 µM in the assay on UO-31 renal; 27 µM in the assay with SK-MEL-28 melanoma; greater than 100 µM in the assay on RPMI-8226 leukemia. The TGI in the assay on MOLT-4 leukemia was 59.1 µM; with SF-539 CNS, 3.83 µM; in the assay on RXF 393 renal, 19.1 µM.

On to `CC1CNc2ccccc2N=C1NN` (configuration not stated), for which the TGI in the assay on SK-MEL-2 melanoma, in the assay on OVCAR-5 ovarian, in the assay with HCC-2998 colon, in the assay with MDA-N, in the assay on UO-31 renal and in the assay on SK-MEL-28 melanoma was greater than 100 µM in each case. For the same compound, the TGI with RPMI-8226 leukemia, with SF-539 CNS and in the assay on RXF 393 renal was greater than 100 µM each time.

`Cc1cccc2nc3c(C(=O)NCCN(C)C)cccc3cc12`: the TGI in the assay with SK-MEL-2 melanoma was 3.46 µM; with OVCAR-5 ovarian it was 6.59 µM; with HCC-2998 colon, 5.36 µM; with UO-31 renal, 5.44 µM; in the assay with SK-MEL-28 melanoma, 3.62 µM; in the assay on RPMI-8226 leukemia, 4.19 µM. For the same compound, the TGI in the assay with SF-539 CNS was 4.84 µM; with RXF 393 renal, 4.13 µM.

As for `NC(=O)c1cc2cc(Cl)cc(Cl)c2oc1=Nc1ccc(F)cc1`, the TGI with SK-MEL-2 melanoma was 31.6 µM; with OVCAR-5 ovarian, 54.6 µM; in the assay with HCC-2998 colon, 48.9 µM; in the assay on MDA-N, 66.5 µM; with UO-31 renal, greater than 100 µM; in the assay with SK-MEL-28 melanoma it was 46.3 µM. Further, the results for the TGI with RPMI-8226 leukemia, in the assay with MOLT-4 leukemia and in the assay on RXF 393 renal were 61.7 µM, 37.1 µM and 37 µM, respectively.

On to `CC1SC(c2ccccc2)N(CCc2cccs2)C1=O` (configuration not stated), for which the GI50 with SK-MEL-2 melanoma was 3.42 µM; in the assay with OVCAR-5 ovarian, 10.3 µM; in the assay with HCC-2998 colon, 4.4 µM; in the assay with SK-MEL-28 melanoma, 4.96 µM; in the assay with RPMI-8226 leukemia, 2440 nM; in the assay on MOLT-4 leukemia, 2980 nM. For the same compound, the GI50 with SF-539 CNS was 5140 nM; in the assay with RXF 393 renal, 6.76 µM. The TGI with SK-MEL-2 melanoma was 14.7 µM; in the assay on OVCAR-5 ovarian, 27 µM; with HCC-2998 colon, 16.4 µM; with SK-MEL-28 melanoma it was 17.9 µM; in the assay with RPMI-8226 leukemia, 8.07 µM; in the assay with MOLT-4 leukemia, 12.4 µM. Also, the figures for the TGI in the assay on SF-539 CNS and in the assay with RXF 393 renal were 19.2 µM and 20.4 µM, respectively.

`O=C(N/N=C(/c1ccccc1)C(F)(F)F)c1ccncc1`: the TGI with SK-MEL-2 melanoma, with OVCAR-5 ovarian, in the assay with HCC-2998 colon, with MDA-N, in the assay on UO-31 renal and in the assay with SK-MEL-28 melanoma was greater than 100 µM each time. Moreover, the TGI with RPMI-8226 leukemia, in the assay on MOLT-4 leukemia and in the assay with RXF 393 renal was greater than 100 µM in each case.
